Where two headings read alike, the source gives them in different places.
What was measured:
[1] = Body weight of tumor bearing mice in the B16-F10 syngeneic model; type: in vivo, C57BL/6 mice
Experimental: • Animal species and strain: C57BL/6 mice • History of treatment: Naive • Sex, age and weight: Female, 6-8 weeks • Breeder/supplier: Shanghai SLAC Laboratory Animal Co. Ltd • Adaptation: At least 7 days • Room: SPF Room • Room temperature: 20-26° C. • Room relative humidity: 40-70% • Light cycle: Fluorescent light for 12-hour light (08:00-20:00) and 12-hour dark • Animal hosting: 2-5 mice/cage each group • Food: Free access to food • Water: Free access to water (municipal tap water filtered by reverse osmosis or high-pressure sterilizer)
B16-F10 cells (3×10^5 in 100 μL of serum-free medium) were inoculated to each of C57BL/6 mice via s.c. under anesthesia by 3-4% isoflurane. Each group contains 15 mice.
When average tumor volume reached 35-60 mm^3, 15 mice were randomized into group 6. The day of inoculation was denoted as day 0.
Body weight was measured on Day 4, 5, 6, 8, 11, 13, 15 and 18 after inoculation. When required, body weight was measured daily.
Results were expressed as mean±S.E.M. Comparisons between two groups were made by Dunnett's multi-comparison test, p<0.05 were considered as significant.

CYP3A4 = CYP3A4 (Homo sapiens, UniProt P08684); assay: Cytochrome P450 inhibition assay, human liver microsomes, CYP3A4; conditions: for inhibition at 10 µM: human
Sequence of CYP3A4 (P08684 whole entry): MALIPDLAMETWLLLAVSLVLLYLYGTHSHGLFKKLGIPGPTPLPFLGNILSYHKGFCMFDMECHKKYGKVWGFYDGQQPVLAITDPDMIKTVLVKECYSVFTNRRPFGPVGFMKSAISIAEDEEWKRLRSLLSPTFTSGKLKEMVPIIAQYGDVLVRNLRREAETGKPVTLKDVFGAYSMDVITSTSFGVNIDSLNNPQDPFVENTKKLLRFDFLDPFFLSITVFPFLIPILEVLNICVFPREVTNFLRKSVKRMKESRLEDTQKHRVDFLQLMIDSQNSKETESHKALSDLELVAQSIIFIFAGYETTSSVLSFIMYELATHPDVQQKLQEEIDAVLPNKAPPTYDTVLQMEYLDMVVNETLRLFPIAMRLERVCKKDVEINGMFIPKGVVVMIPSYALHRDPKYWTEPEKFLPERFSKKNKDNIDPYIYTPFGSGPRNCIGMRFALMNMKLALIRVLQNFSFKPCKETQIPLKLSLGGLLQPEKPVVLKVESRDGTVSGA

CYP2C9 = biological target: T1, CYP2C9 (Homo sapiens, UniProt P11712); assay: Cytochrome P450 inhibition assay, human liver microsomes, CYP2C9; type: in vitro ADME
T1 construct: CONSTRUCT DETAILS: Microsomes; from tissue; host or cells: human liver microsomes
T1 sequence (P11712 whole entry): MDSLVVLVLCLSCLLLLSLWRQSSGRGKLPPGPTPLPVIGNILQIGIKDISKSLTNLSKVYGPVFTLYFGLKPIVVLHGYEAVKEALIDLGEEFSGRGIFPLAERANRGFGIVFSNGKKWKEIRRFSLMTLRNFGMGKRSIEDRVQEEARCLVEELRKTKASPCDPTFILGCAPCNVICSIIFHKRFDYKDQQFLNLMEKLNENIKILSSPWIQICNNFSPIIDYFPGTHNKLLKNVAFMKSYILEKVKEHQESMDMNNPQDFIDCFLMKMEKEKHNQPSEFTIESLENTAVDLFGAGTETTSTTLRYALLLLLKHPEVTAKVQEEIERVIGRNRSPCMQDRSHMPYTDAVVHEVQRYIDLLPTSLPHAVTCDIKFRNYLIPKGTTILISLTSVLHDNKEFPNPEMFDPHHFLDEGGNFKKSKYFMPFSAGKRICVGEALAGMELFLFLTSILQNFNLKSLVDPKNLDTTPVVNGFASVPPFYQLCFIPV
Description: • SUBSTRATE: Diclofenac

[2] = Aqueous solubility assay (shake-flask, LC/MS/MS); type: physicochemical; conditions: for Conc. Of Sample (ug/mL), aqueous solubility / solubility at 24 h: 25° C., 24 hours, SIS3 hydrochloride salt, MO-00005 free base; for solubility at 24 h: thermodynamic from solid, read-out: Conc. Of Sample (ug/mL), aqueous solubility
Experimental: Poorly soluble compounds can dramatically reduce productivity in drug discovery and development. Solubility assays involve assessment of kinetic solubility (from DMSO stock solution) using a shake-flask technique in a plate format and LC/MS/MS analysis.
• Analytical Column: YMC ODS-AM S-3 120A, 3×50 mm column with Guard. • Flow Rate: 500 ul/min • Mobil Phase: Isocratic 50% acetonitrile: 50% 20 mM Ammonium Acetate pH 4. Back Pressure: 1400 psi • Column Temperature: Ambient, • Autosampler Setting: Injection Volume: 5 ul, Loop Volume: 100 ul, Tray Temperature: 4° C. • Needle wash: Vial position 100. Needle wash solution: 50% Methanol water
• Component Mass Molarity • Sodium bicarbonate (mw: 84 g/mol) 0.11628 g 0.0461 M • Sodium carbonate (anhydrous) (mw: 106 g/mol) 0.17127 g 0.0539 M • Tris Buffer pH 7.7 (100 mL) • Add 0.363 g of tris to 30 mL water. Check pH at room temperature the pH should be 7.7 with acetic acid. • Acetate Buffer pH 3.6 (30 mL) • Component Mass Molarity • Sodium Acetate (anhydrous) (mw: 82 g/mol) 0.01188 g 0.0048 M • Acetic Acid (mw: 60.05 g/mol) 0.17145 g 0.0952 M (0.17145 g=[…])
Then run all samples at this dilution. • (xi) Run samples in duplicate and estimate aqueous solubility.
As such, it may be expected that the hydrochloride salt will have better solubility in unbuffered aqueous solutions. There the thermodynamic equilibrium dissolution concentrations of both compounds were determined also in buffered solutions at pH 4, 7.7, and 10.4 in addition to unbuffered water.

CYP2D6 = biological target: T2, CYP2D6 (Homo sapiens, UniProt P10635); assay: Cytochrome P450 inhibition assay, human liver microsomes, CYP2D6; type: in vitro ADME
T2 construct: CONSTRUCT DETAILS: Microsomes; from tissue; host or cells: human liver microsomes
T2 sequence (P10635 whole entry): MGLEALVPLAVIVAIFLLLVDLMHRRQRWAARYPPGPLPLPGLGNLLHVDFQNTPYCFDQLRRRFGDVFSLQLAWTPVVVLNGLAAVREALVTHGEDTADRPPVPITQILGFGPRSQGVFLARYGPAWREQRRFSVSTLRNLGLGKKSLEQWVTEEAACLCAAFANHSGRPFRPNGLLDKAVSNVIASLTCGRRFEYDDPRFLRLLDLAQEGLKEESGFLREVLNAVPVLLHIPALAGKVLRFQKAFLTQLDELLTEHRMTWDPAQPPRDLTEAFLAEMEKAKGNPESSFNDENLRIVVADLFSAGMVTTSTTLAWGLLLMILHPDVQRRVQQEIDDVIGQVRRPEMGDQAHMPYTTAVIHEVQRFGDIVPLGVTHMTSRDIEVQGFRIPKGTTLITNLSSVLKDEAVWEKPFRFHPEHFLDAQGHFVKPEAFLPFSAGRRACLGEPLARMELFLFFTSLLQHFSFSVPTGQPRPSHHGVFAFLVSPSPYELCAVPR

[3] = Aqueous solubility assay (shake-flask, LC/MS/MS); type: physicochemical
B16-F10 syngeneic model = assay: Subcutaneous B16-F10 syngeneic model, tumor growth; type: in vivo, C57BL/6 mice; conditions: 30 mg/kg q.d. * 3W i.p.
[4] = 10 mg/kg q.d. * 3W i.p., Day 11
[5] = 10 mg/kg q.d. * 3W i.p., Day 13
[6] = 10 mg/kg q.d. * 3W i.p., Day 15
[7] = 10 mg/kg q.d. * 3W i.p., Day 18
[8] = 30 mg/kg q.d. * 3W i.p., Day 11
[9] = 30 mg/kg q.d. * 3W i.p., Day 13
[10] = 30 mg/kg q.d. * 3W i.p., Day 15
[11] = 30 mg/kg q.d. * 3W i.p., Day 18
[12] = Day 13, calculated based on tumor volume of Day 8
[13] = Day 15, calculated based on tumor volume of Day 8
[14] = Day 18, calculated based on tumor volume of Day 8

| Structure (SMILES) | Body weight (g) Mean ([1]; 10 mg/kg q.d. * 3W i.p., Day 1) | Body weight (g) Mean ([1]; 10 mg/kg q.d. * 3W i.p., Day 4) | Body weight (g) Mean ([1]; 10 mg/kg q.d. * 3W i.p., Day 5) | Body weight (g) Mean ([1]; 10 mg/kg q.d. * 3W i.p., Day 6) | Body weight (g) Mean ([1]; 10 mg/kg q.d. * 3W i.p., Day 8) | Body weight (g) Mean [1, 4] | Body weight (g) Mean [1, 5] | Body weight (g) Mean [1, 6] | Body weight (g) Mean [1, 7] | Body weight (g) Mean ([1]; 30 mg/kg q.d. * 3W i.p., Day 1) | Body weight (g) Mean ([1]; 30 mg/kg q.d. * 3W i.p., Day 4) | Body weight (g) Mean ([1]; 30 mg/kg q.d. * 3W i.p., Day 5) | Body weight (g) Mean ([1]; 30 mg/kg q.d. * 3W i.p., Day 6) | Body weight (g) Mean ([1]; 30 mg/kg q.d. * 3W i.p., Day 8) | Body weight (g) Mean [1, 8] | Body weight (g) Mean [1, 9] | Body weight (g) Mean [1, 10] | Body weight (g) Mean [1, 11] | Tumor growth inhibition (%) TGI (B16-F10 syngeneic model; [12]) | Tumor growth inhibition (%) TGI (B16-F10 syngeneic model; [13]) | other results |
| --- | --- | --- | --- | --- | --- | --- | --- | --- | --- | --- | --- | --- | --- | --- | --- | --- | --- | --- | --- | --- | --- |
| COc1cc2c(cc1OC)CN(C(=O)/C=C/c1c(-c3ccccc3)n(C)c3ncccc13)CC2.Cl [SIS3, reference compound] | 16.72 g | 16.64 g | 16.55 g | 16.50 g | 16.83 g | 17.53 g | 17.84 g | 19.04 g | 20.77 g | 16.72 g | 16.66 g | 16.55 g | 16.59 g | 16.69 g | 17.30 g | 17.53 g | 18.45 g | 20.70 g | 39% | 27% | CYP3A inhibition (HLM, midazolam substrate) Inhibition (%) (CYP3A4; 10 uM, midazolam substrate): 20.5499%; CYP3A inhibition (HLM, testosterone substrate) Inhibition (%) (CYP3A4; 10 uM, testosterone substrate): 9.294%; CYP2C9 inhibition (HLM, diclofenac substrate) Inhibition (%) (CYP2C9; 10 uM): 79.7661%; Conc. Of Sample (ug/mL), aqueous solubility ([2]; pH 4.03 buffer): 17.2 µg/mL; Conc. Of Sample (ug/mL), aqueous solubility ([2]; pH 7.70 buffer): 7.0 µg/mL; Conc. Of Sample (ug/mL), aqueous solubility ([2]; unbuffered water): 17.7 µg/mL; CYP2D6 inhibition (HLM, dextromethorphan substrate) Inhibition (%) (CYP2D6; 10 uM): 19.1641%; Conc. Of Sample (ug/mL), aqueous solubility ([3]; pH 10.63 buffer, 25° C., 24 hours, SIS3 hydrochloride salt, MO-00005 free base): 2.4 µg/mL; Tumor growth inhibition (%) TGI (B16-F10 syngeneic model; [14]): 25% |
| COc1cc2c(cc1OC)CN(C(=O)/C=C/c1c(-c3ccccc3)nc3ccccn13)CC2 [Compound 8, (E)-1-(6,7-dimethoxy-3,4-dihydroisoquinolin-2(1H)-yl)-3-(2-phenylimidazo[1,2-a]pyridin-3-yl)prop-2-en-1-one] | 16.73 g | 16.41 g | 16.26 g | 16.21 g | 16.67 g | 17.33 g | 17.51 g | 18.85 g | 21.26 g | 16.70 g | 16.54 g | 16.32 g | 16.18 g | 16.60 g | 17.36 g | 17.78 g | 18.73 g | 20.93 g | 39% | 26% | Body weight (g) Mean ([1]; 100 mg/kg q.d. * 3W i.p. (group 6), Day 11): 17.20 g; Body weight (g) Mean ([1]; 100 mg/kg q.d. * 3W i.p. (group 6), Day 13): 17.95 g; Body weight (g) Mean ([1]; 100 mg/kg q.d. * 3W i.p. (group 6), Day 15): 18.78 g; Body weight (g) Mean ([1]; 100 mg/kg q.d. * 3W i.p. (group 6), Day 18): 21.82 g; Body weight (g) Mean ([1]; 100 mg/kg q.d. * 3W i.p. (group 6, randomized at tumor volume 35-60 mm^3), Day 8): 17.36 g; inhibition at 10 µM (CYP3A4; probe midazolam): 41.3%; inhibition at 10 µM (CYP3A4; probe testosterone): 2.22%; inhibition at 10 µM (CYP2C9; probe diclofenac, diclofenac substrate, read-out: CYP2C9 inhibition (HLM, diclofenac substrate) Inhibition (%)): 66.9%; solubility at 24 h ([2]; aqueous buffer pH 4.03, aqueous buffer, pH 4.03 buffer): 598 µg/mL; solubility at 24 h ([2]; aqueous buffer pH 7.70, pH 7.7, aqueous buffer, pH 7.70 buffer): 269 µg/mL; aqueous solubility relative to the solubility of SIS3 ([2]; pH of 4.0): 35 times; solubility at 24 h ([2]; unbuffered water): 321 µg/mL; inhibition at 10 µM (CYP2D6; probe dextromethorphan, dextromethorphan substrate, read-out: CYP2D6 inhibition (HLM, dextromethorphan substrate) Inhibition (%)): -2.74%; solubility at 24 h ([3]; aqueous buffer pH 10.63, aqueous buffer, thermodynamic from solid, pH 10.63 buffer, 25° C., 24 hours, SIS3 hydrochloride salt, MO-00005 free base, read-out: Conc. Of Sample (ug/mL), aqueous solubility): 280 µg/mL; aqueous solubility relative to the solubility of SIS3 ([3]; pH 10.63): 117 times; Tumor growth inhibition (%) TGI (B16-F10 syngeneic model; [14]): 18% |
